Experimental data published in PubChem BioAssay (NCI).
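Results reflect a 48-hour exposure of cells in 96-well plates to compound at five concentrations. Abbreviation: GI50, concentration required for 50% inhibition of growth. TGI is the concentration that stops growth completely.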

Columns and labels:
Assay in all cases: growth of human tumour cells (NCI), 48 h
[1] = system: MDA-MB-468 breast
[2] = system: SK-MEL-2 melanoma
[3] = system: NCI-H460 lung
[4] = system: MDA-MB-231 breast
[5] = system: SR leukemia
[6] = system: A498 renal
[7] = system: MOLT-4 leukemia
[8] = system: NCI-H226 lung
[9] = system: LOX IMVI melanoma
[10] = system: HS 578T breast
[11] = system: COLO 205 colon
[12] = system: ACHN renal
[13] = system: K-562 leukemia
[14] = system: TK-10 renal
[15] = system: BT-549 breast
[16] = system: HL-60(TB) leukemia
[17] = system: SK-OV-3 ovarian
[18] = system: T-47D breast
[19] = system: EKVX NSCLC
[20] = system: SF-268 CNS
[21] = system: CAKI-1 renal
[22] = system: HOP-92 NSCLC
[23] = system: OVCAR-4 ovarian
[24] = system: SW-620 colon
[25] = system: HCC-2998 colon
[26] = system: OVCAR-3 ovarian
[27] = system: PC-3 prostate
[28] = system: M14 melanoma
[29] = system: MCF7 breast
[30] = system: UO-31 renal
[31] = system: OVCAR-8 ovarian
[32] = system: DU-145 prostate
[33] = system: RXF 393 renal
[34] = system: 786-0 renal
[35] = system: KM12 colon
[36] = system: OVCAR-5 ovarian
[37] = system: MALME-3M melanoma
[38] = system: SK-MEL-5 melanoma
[39] = system: HT29 colon
[40] = system: NCI-H23 lung
[41] = system: U251 CNS
[42] = system: SF-295 CNS
[43] = system: UACC-257 melanoma
[44] = system: RPMI-8226 leukemia
[45] = system: SNB-75 CNS
[46] = system: NCI/ADR-RES ovarian
[47] = system: SNB-19 CNS
[48] = system: HCT-116 colon
[49] = system: A549 NSCLC
[50] = system: SN12C renal
[51] = system: SF-539 CNS
[52] = system: CCRF-CEM leukemia
[53] = system: HCT-15 colon
[54] = system: UACC-62 melanoma
[55] = system: SK-MEL-28 melanoma
[56] = system: HOP-62 NSCLC
[57] = system: IGROV1 ovarian
[58] = system: MDA-MB-435
[59] = system: NCI-H522 lung

Compound: CC(C)NC(=O)c1cc(-c2ccc(NC(=O)Nc3ccc(N4CCN(C)CC4)c(C(F)(F)F)c3)cc2)nc2cccnc12
- GI50 [1]: 0.801 µM
- TGI [1]: 2.29 µM
- GI50 [2]: 2.72 µM
- TGI [2]: 6.5 µM
- GI50 [3]: 2.11 µM
- TGI [3]: 4.04 µM
- GI50 [4]: 0.82 µM
- TGI [4]: 2.03 µM
- GI50 [5]: 2.29 µM
- TGI [5]: 7.45 µM
- GI50 [6]: 13.5 µM
- TGI [6]: 19.3 µM
- GI50 [7]: 1.05 µM
- TGI [7]: 4.19 µM
- GI50 [8]: 6.13 µM
- TGI [8]: 14.8 µM
- GI50 [9]: 1.95 µM
- TGI [9]: 3.62 µM
- GI50 [10]: 1.36 µM
- TGI [10]: 7.5 µM
- GI50 [11]: 2.37 µM
- TGI [11]: 5.56 µM
- GI50 [12]: 2.03 µM
- TGI [12]: 3.74 µM
- GI50 [13]: 2.79 µM
- TGI [13]: 33.4 µM
- GI50 [14]: 2.24 µM
- TGI [14]: 4.18 µM
- GI50 [15]: 1.37 µM
- TGI [15]: 6.31 µM
- GI50 [16]: 0.572 µM
- TGI [16]: 3.18 µM
- GI50 [17]: 4.85 µM
- TGI [17]: 16.2 µM
- GI50 [18]: 1.71 µM
- TGI [18]: 31 µM
- GI50 [19]: 2.19 µM
- TGI [19]: 4.3 µM
- GI50 [20]: 6.09 µM
- TGI [20]: 16.8 µM
- GI50 [21]: 1.96 µM
- TGI [21]: 3.74 µM
- GI50 [22]: 0.98 µM
- TGI [22]: 2.94 µM
- GI50 [23]: 2.21 µM
- TGI [23]: 5.18 µM
- GI50 [24]: 1.79 µM
- TGI [24]: 3.74 µM
- GI50 [25]: 2.09 µM
- TGI [25]: 3.96 µM
- GI50 [26]: 1.91 µM
- TGI [26]: 3.94 µM
- GI50 [27]: 1.82 µM
- TGI [27]: 4.81 µM
- GI50 [28]: 2 µM
- TGI [28]: 4.13 µM
- GI50 [29]: 0.397 µM
- TGI [29]: 2.79 µM
- GI50 [30]: 1.76 µM
- TGI [30]: 3.39 µM
- GI50 [31]: 2.16 µM
- TGI [31]: 4.81 µM
- GI50 [32]: 2.18 µM
- TGI [32]: 4.15 µM
- GI50 [33]: 1.07 µM
- TGI [33]: 2.89 µM
- GI50 [34]: 1.65 µM
- TGI [34]: 3.34 µM
- GI50 [35]: 2.43 µM
- TGI [35]: 5.12 µM
- GI50 [36]: 1.98 µM
- TGI [36]: 3.81 µM
- GI50 [37]: 1.65 µM
- TGI [37]: 3.32 µM
- GI50 [38]: 2.07 µM
- TGI [38]: 3.76 µM
- GI50 [39]: 1.95 µM
- TGI [39]: 3.98 µM
- GI50 [40]: 2.23 µM
- TGI [40]: 4.44 µM
- GI50 [41]: 1.74 µM
- TGI [41]: 3.55 µM
- GI50 [42]: 1.83 µM
- TGI [42]: 3.57 µM
- GI50 [43]: 2.09 µM
- TGI [43]: 4.2 µM
- GI50 [44]: 2 µM
- TGI [44]: 7.82 µM
- GI50 [45]: 0.657 µM
- TGI [45]: 4.94 µM
- GI50 [46]: 3.29 µM
- TGI [46]: 9.35 µM
- GI50 [47]: 2.09 µM
- TGI [47]: 4.75 µM
- GI50 [48]: 2.06 µM
- TGI [48]: 3.92 µM
- GI50 [49]: 6.5 µM
- TGI [49]: 12.8 µM
- GI50 [50]: 1.81 µM
- TGI [50]: 3.53 µM
- GI50 [51]: 1.51 µM
- TGI [51]: 3.06 µM
- GI50 [52]: 0.539 µM
- TGI [52]: 3.82 µM
- GI50 [53]: 2.1 µM
- TGI [53]: 4.2 µM
- GI50 [54]: 2.11 µM
- TGI [54]: 4.13 µM
- GI50 [55]: 1.98 µM
- TGI [55]: 3.68 µM
- GI50 [56]: 2.24 µM
- TGI [56]: 4.73 µM
- GI50 [57]: 1.74 µM
- TGI [57]: 3.55 µM
- GI50 [58]: 1.94 µM
- TGI [58]: 3.88 µM
- GI50 [59]: 2.01 µM
- TGI [59]: 4.02 µM
